In PMC3583349 (Pest management science, 2012):
Like-named read-outs stand apart in the source and are kept apart here.

Tests used:
CpGSTD1 [1] = biological target: T1, CpGSTD1 (Culex pipiens, UniProt H9M8E3); assay: biochemical
T1 sequence (H9M8E3 1-211): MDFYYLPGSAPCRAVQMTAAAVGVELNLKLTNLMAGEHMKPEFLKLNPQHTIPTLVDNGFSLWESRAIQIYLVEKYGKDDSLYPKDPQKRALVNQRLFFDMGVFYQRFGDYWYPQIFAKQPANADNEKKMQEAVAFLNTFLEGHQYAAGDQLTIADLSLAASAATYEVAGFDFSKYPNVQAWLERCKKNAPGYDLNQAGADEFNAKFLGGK

CpGSTD2 [2] = biological target: T2, CpGSTD2 (Culex pipiens, UniProt H9M8E4); assay: biochemical
T2 sequence (H9M8E4 1-214): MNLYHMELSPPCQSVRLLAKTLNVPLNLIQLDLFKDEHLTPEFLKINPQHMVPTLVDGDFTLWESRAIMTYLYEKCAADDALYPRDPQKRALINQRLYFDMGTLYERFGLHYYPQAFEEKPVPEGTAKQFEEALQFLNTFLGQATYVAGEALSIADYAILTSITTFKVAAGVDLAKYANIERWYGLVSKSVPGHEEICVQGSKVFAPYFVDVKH

AgGSTD1-6 = settings: cited from earlier work
CpGSTD2 [3] = biological target: T2, CpGSTD2
AdGSTD1-1 = settings: cited from earlier work
CpGSTD1 [4] = biological target: T1, CpGSTD1; settings: for Km: pH 6.5
CpGSTD1 [5] = biological target: T1, CpGSTD1; assay: Peroxidase activity assay with CMHP, CpGSTD1; assay type: biochemical; settings: 0.125 to 1.0 mM CMHP, 7.5 mM reduced GSH, 25°C, pH 6.5
CpGSTD2 [6] = biological target: T2, CpGSTD2; assay: Peroxidase activity assay with CMHP, CpGSTD2; assay type: biochemical; settings: pH 7.5; conditions where a rate of at least 0.1 μmol min^−1 mg^−1 could be detected with CpGSTD1
CpGSTD1 [7] = biological target: T1, CpGSTD1; assay: DDT dehydrochlorination assay, CpGSTD1; assay type: biochemical; settings: over a period of 2 h, 1 μM DDT, 15 mM reduced GSH, 30°C, pH 6.5, HPLC
CpGSTD1 [8] = biological target: T1, CpGSTD1; settings: pH 6.5
CpGSTD2 [9] = biological target: T2, CpGSTD2; remark: listed apart in the source
GST-2 = settings: cited from earlier work
GST-1b = settings: cited from earlier work
CpGSTD2 [10] = biological target: T2, CpGSTD2; assay: Permethrin metabolism assay; assay type: biochemical; settings: for Ratio of the area under the curve relative to lambda cyhalothrin: after 2 h incubation at 30°C with CpGSTD2, 1 μM permethrin, HPLC
CpGSTD1 [11] = biological target: T1, CpGSTD1; assay: Permethrin metabolism assay; assay type: biochemical; settings: for Ratio of the area under the curve relative to lambda cyhalothrin: after 2 h incubation at 30°C with CpGSTD1, 1 μM permethrin, HPLC
[12] = substrate: O=[N+]([O-])c1ccc(Cl)c(Cl)c1; assay: purified protein, by the assay type; settings: pH 7.5; 30.0 °C
[13] = varying substrate 7.8 to 750 μM, 5 mM reduced GSH, 30°C, pH 7.5
[14] = 2 h, 30°C, conditions where a rate of 7 pmol min^−1 mg^−1 could have been reliably detected

O=C(/C=C/c1ccc(O)cc1)c1ccccc1 [4-hydroxy chalcone, 4-hydroxychalcone]
IC50 (CpGSTD1 [1]): 16 ± 1 µM | IC50 (CpGSTD2 [2]): 5 ± 0.2 µM

O=[N+]([O-])c1ccc(Cl)c([N+](=O)[O-])c1 [CDNB, 1-chloro-2,4-dinitrobenze]
catalytic efficiency ratio (kcat/KM) (AgGSTD1-6): 790000 M⁻¹ s⁻¹ | kcat (CpGSTD2 [3]; 5 mM reduced GSH, 30°C, pH 7.5): 7.0 s⁻¹ | catalytic efficiency (kcat/KM) higher with CDNB than with DCNB (CpGSTD2 [3]; CpGSTD2): at least 100 fold | turnover of CDNB faster than DCNB (CpGSTD2 [3]; CpGSTD2, CDNB versus DCNB): about 18 fold | Km (CpGSTD2 [3]; [13]): 30 ± 2 µM | Vmax (CpGSTD2 [3]; [13]): 18 ± 0.2 µmol/min/mg | catalytic efficiency ratio (kcat/KM) (AdGSTD1-1): 48000 M⁻¹ s⁻¹ | catalytic efficiency (kcat/KM) higher with CDNB than with DCNB (CpGSTD1 [4]; CpGSTD1): at least 100 fold | turnover of CDNB faster than DCNB (CpGSTD1 [4]; CpGSTD1, CDNB versus DCNB): about 230 fold | turnover of CDNB by CpGSTD1 faster than by CpGSTD2 (CpGSTD1 [4]; CpGSTD1 versus CpGSTD2): about 3 fold | Km (CpGSTD1 [4]): 140 ± 10 µM

CC(C)(OO)c1ccccc1 [CMHP, cumene hydroperoxide]
rate of CMHP reduction (peroxidase activity) (CpGSTD1 [5]): 1.6 µmol/min/mg | activity towards CMHP (peroxidase activity) (CpGSTD2 [6]): no detectable activity

O=[N+]([O-])c1ccc(Cl)c(Cl)c1 [DCNB, 1,2-dichloro-4-nitrobenzene]
Km (CpGSTD1 [4]): 170 ± 10 µM

Clc1ccc(C(c2ccc(Cl)cc2)C(Cl)(Cl)Cl)cc1 [DDT, 1,1,1-Trichloro-2,2-bis(4-chlorophenyl)ethane]
rate of DDT metabolism to DDE (CpGSTD1 [7]): 6.4 ± 0.6 nmol per mg protein

CCCCCCSC[C@H](NC(=O)CC[C@H](N)C(=O)O)C(=O)NCC(=O)O [S-hexyl glutathione, S-hexylglutathione]
IC50 (CpGSTD1 [8]): 68 ± 3 µM | IC50 (CpGSTD2 [9]): 0.24 µM | IC50 (CpGSTD2 [9]; pH 7.5): 0.24 ± 0.01 µM

O=C(/C=C/c1ccccc1)c1ccccc1 [chalcone]
IC50 (CpGSTD1 [1]): 12.1 ± 0.4 µM | IC50 (CpGSTD2 [2]): 4 ± 0.2 µM | IC50 (GST-2): 165 µM | IC50 (GST-1b): 166 µM

CC1(C)[C@H](C(=O)OCc2cccc(Oc3ccccc3)c2)[C@@H]1C=C(Cl)Cl [cis-permethrin]
Ratio of the area under the curve relative to lambda cyhalothrin (CpGSTD2 [10]): 0.51 ± 0.03 | Ratio of the area under the curve relative to lambda cyhalothrin (CpGSTD1 [11]): 0.47 ± 0.02

C=C(CC)C(=O)c1ccc(OCC(=O)O)c(Cl)c1Cl [ethacrynic acid (EA), ethacrynic acid]
IC50 (CpGSTD2 [2]): 2.5 ± 0.1 µM

CC1(C)C(C=C(Cl)Cl)C1C(=O)OCc1cccc(Oc2ccccc2)c1 (centres unmarked) [permethrin]
metabolism of permethrin (CpGSTD2 [10]; [14]): neither CpGSTD1 nor CpGSTD2 are able to metabolize | metabolism of permethrin (CpGSTD1 [11]; [14]): neither CpGSTD1 nor CpGSTD2 are able to metabolize

CC1(C)[C@H](C=C(Cl)Cl)[C@H]1C(=O)OCc1cccc(Oc2ccccc2)c1 [trans-permethrin]
Ratio of the area under the curve relative to lambda cyhalothrin (CpGSTD2 [10]): 0.29 ± 0.02 | Ratio of the area under the curve relative to lambda cyhalothrin (CpGSTD1 [11]): 0.24 ± 0.01

B1: CpGSTD2 (Culex pipiens) (protein)
chain: MNLYHMELSPPCQSVRLLAKTLNVPLNLIQLDLFKDEHLTPEFLKINPQHMVPTLVDGDFTLWESRAIMTYLYEKCAADDALYPRDPQKRALINQRLYFDMGTLYERFGLHYYPQAFEEKPVPEGTAKQFEEALQFLNTFLGQATYVAGEALSIADYAILTSITTFKVAAGVDLAKYANIERWYGLVSKSVPGHEEICVQGSKVFAPYFVDVKH
Km [12]: 220 ± 10 µM | Vmax [12]: 0.96 ± 0.02 µmol/min/mg | kcat [12]: 0.4 s⁻¹ | kcat/Km [12]: 1700 M⁻¹ s⁻¹
